Data: DBAASP
Values after ≈ are worked out from the molar mass of the structure shown. Values belong to the molecule of their own block, whether it stands above or below them.

What was measured:
Assay in all cases: ≥ marks a high value that may be exact or a test limit, other limits are often not marked, values filed in µg/mL are converted to µM
[1] = tested on: Batrachochytrium dendrobatidis
Staphylococcus aureus = tested on: Staphylococcus aureus
[2] = tested on: Escherichia coli ATCC 25922
[3] = tested on: Candida albicans ATCC 20032
[4] = tested on: Staphylococcus aureus ATCC 25923
[5] = tested on: Bacillus subtilis ATCC 6633
Escherichia coli B = tested on: Escherichia coli B
Klebsiella pneumoniae = tested on: Klebsiella pneumoniae
Salmonella typhimurium = tested on: Salmonella typhimurium
Enterobacter cloacae = tested on: Enterobacter cloacae
[6] = tested on: Salmonella enterica subsp. enterica serovar Enteritidis
[7] = tested on: Staphylococcus haemolyticus
Bacillus megaterium = tested on: Bacillus megaterium
[8] = tested on: Staphylococcus aureus JC-1
Escherichia coli D21 = tested on: Escherichia coli D21
[9] = tested on: Proteus vulgaris OX19 ATCC 6380
[10] = tested on: Shigella flexneri ATCC 203
[11] = tested on: Staphylococcus aureus Cowan 1
[12] = tested on: Pseudomonas aeruginosa OT97
Bacillus megaterium Bm11 = tested on: Bacillus megaterium Bm11
[13] = tested on: Escherichia coli KCTC 1682
[14] = tested on: Salmonella typhimurium KCTC 1926
[15] = tested on: Streptococcus pyogenes KCTC 3096
[16] = tested on: Staphylococcus aureus KCTC 1621
[17] = tested on: Bacillus subtilis KCTC 1918
[18] = tested on: Pseudomonas aeruginosa KCTC 1637
[19] = tested on: Staphylococcus aureus NCTC 10788
[20] = tested on: Escherichia coli ATCC 25726
[21] = tested on: Candida albicans NCYC 1467
[22] = tested on: Legionella pneumophila Lens
[23] = tested on: Candida albicans ATCC 10231
[24] = tested on: Burkholderia thailandensis
[25] = tested on: Klebsiella pneumoniae ATCC 13883
[26] = tested on: Bacillus anthracis Sterne 34F2
[27] = tested on: Bacillus subtilis ATCC 9372
[28] = tested on: Staphylococcus aureus ATCC 29213

MIC [1]: ≥ 100 µM
MIC (Staphylococcus aureus): 100 µM (≈ 140 µg/mL)
SMILES: CC[C@H](C)[C@H](NC(=O)[C@H](C)NC(=O)[C@H](CO)NC(=O)[C@@H](NC(=O)[C@@H](N)Cc1ccccc1)[C@@H](C)CC)C(=O)N[C@@H](C)C(=O)N[C@@H](CO)C(=O)N[C@@H](CCSC)C(=O)N[C@@H](CC(C)C)C(=O)NCC(=O)N[C@@H](CCCCN)C(=O)N[C@@H](Cc1ccccc1)C(=O)N[C@@H](CC(C)C)C(N)=O [FISAIASMLGKFL]

MIC [2]: > 38.3 µM
MIC [3]: ≥ 38.3 µM
MIC [4]: 7.19 µM (≈ 18.8 µg/mL)
MIC [5]: ≥ 38.3 µM
SMILES: CC[C@H](C)[C@H](NC(=O)CN)C(=O)NCC(=O)NCC(=O)N[C@H](C(=O)N[C@@H](CC(C)C)C(=O)N[C@@H](CC(C)C)C(=O)NCC(=O)N[C@@H](C)C(=O)NCC(=O)N[C@@H](CCCCN)C(=O)N[C@@H](C)C(=O)N[C@H](C(=O)N[C@@H](CC(C)C)C(=O)N[C@@H](CCCCN)C(=O)NCC(=O)N[C@@H](CC(C)C)C(=O)N[C@@H](C)C(=O)N[C@@H](CCCCN)C(=O)N[C@H](C(=O)N[C@@H](CC(C)C)C(=O)N[C@@H](C)C(=O)N[C@@H](CCC(=O)O)C(=O)N[C@@H](CCCCN)C(=O)N[C@@H](Cc1ccc(O)cc1)C(=O)N[C@@H](C)C(=O)N[C@@H](CC(N)=O)C(N)=O)C(C)C)[C@@H](C)O)C(C)C [GIGGVLLGAGKATLKGLAKVLAEKYAN]

MIC (Escherichia coli B): 25 µM (≈ 65.6 µg/mL)
MIC (Klebsiella pneumoniae): 25 µM (≈ 65.6 µg/mL)
MIC (Salmonella typhimurium): ≥ 100 µM
MIC (Enterobacter cloacae): ≥ 50 µM
MIC [6]: ≥ 100 µM
MIC (Staphylococcus aureus): > 100 µM
MIC (Bacillus megaterium): ≥ 100 µM
SMILES: CC[C@H](C)[C@H](NC(=O)[C@@H](NC(=O)[C@@H]1CCCN1C(=O)[C@@H](NC(=O)[C@@H](NC(=O)[C@H](CCCN=C(N)N)NC(=O)[C@@H]1CCCN1C(=O)[C@@H](NC(=O)[C@@H](NC(=O)[C@H](Cc1cnc[nH]1)NC(=O)[C@H](CCCCN)NC(=O)[C@H](C)NC(=O)[C@@H](NC(=O)[C@H](CO)NC(=O)CNC(=O)[C@H](CC(C)C)NC(=O)[C@@H](NC(=O)[C@H](CO)NC(=O)[C@H](Cc1ccccc1)NC(=O)[C@H](CC(C)C)NC(=O)CN)C(C)C)C(C)C)C(C)C)C(C)C)C(C)C)C(C)C)C(C)C)C(=O)N[C@@H](C)C(=O)N[C@@H](CCC(=O)O)C(=O)N[C@@H](Cc1cnc[nH]1)C(=O)N[C@@H](CC(C)C)C(N)=O [GLFSVLGSVAKHVVPRVVPVIAEHL]
MIC [7]: ≥ 50 µM

MIC [2]: > 51 µM
MIC [3]: ≥ 51 µM
MIC [4]: > 51 µM
MIC [5]: ≥ 51 µM
SMILES: CC[C@H](C)[C@H](N)C(=O)N[C@@H](CC(C)C)C(=O)NCC(=O)N1CCC[C@H]1C(=O)N[C@H](C(=O)N[C@@H](CC(C)C)C(=O)NCC(=O)N[C@@H](CC(C)C)C(=O)N[C@@H](CC(=O)O)C(=O)NCC(=O)N[C@@H](CC(N)=O)C(=O)N[C@@H](C)C(=O)N[C@@H](CC(C)C)C(=O)NCC(=O)NCC(=O)N[C@@H](CC(C)C)C(=O)N[C@H](C(=O)N[C@@H](CCCCN)C(=O)N[C@@H](CCCCN)C(=O)N[C@H](C(N)=O)[C@@H](C)CC)[C@@H](C)CC)C(C)C [ILGPVLGLDGNALGGLIKKI]

MIC [8]: ≥ 800 µM
MIC (Escherichia coli D21): ≥ 3200 µM
MIC [9]: ≥ 6000 µM
MIC [10]: ≥ 800 µM
MIC [11]: ≥ 6000 µM
MIC [12]: ≥ 6000 µM
MIC [5]: ≥ 800 µM
MIC (Bacillus megaterium Bm11): ≥ 1600 µM
SMILES: CC[C@H](C)[C@H](NC(=O)[C@H](CCCCN)NC(=O)[C@@H](NC(=O)[C@@H](NC(=O)[C@H](CCC(N)=O)NC(=O)CNC(=O)[C@H](Cc1cnc[nH]1)NC(=O)[C@H](CCC(N)=O)NC(=O)[C@H](CC(N)=O)NC(=O)[C@H](CCC(N)=O)NC(=O)[C@@H](NC(=O)[C@@H](N)CCCCN)C(C)C)C(C)C)C(C)C)C(=O)N[C@@H](Cc1ccccc1)C(=O)N[C@@H](Cc1cnc[nH]1)C(=O)N[C@@H](Cc1cnc[nH]1)C(=O)O [KVQNQHGQVVKIFHH]

MIC [13]: 3.12 µM (≈ 7.46 µg/mL)
MIC [14]: 0.78 µM (≈ 1.86 µg/mL)
MIC [15]: 0.78 µM (≈ 1.86 µg/mL)
MIC [16]: 3.12 µM (≈ 7.46 µg/mL)
MIC [17]: 0.78 µM (≈ 1.86 µg/mL)
MIC [18]: 0.78 µM (≈ 1.86 µg/mL)
SMILES: CC[C@H](C)[C@H](NC(=O)[C@H](CCCCN)NC(=O)[C@H](CCCCN)NC(=O)[C@H](Cc1ccccc1)NC(=O)[C@H](CC(C)C)NC(=O)[C@H](CCCCN)NC(=O)[C@H](Cc1c[nH]c2ccccc12)NC(=O)[C@@H](N)CCCCN)C(=O)NCC(=O)N1CCC[C@H]1C(=O)NCC(=O)N[C@@H](CCCCN)C(=O)N[C@@H](Cc1ccccc1)C(=O)N[C@@H](CC(C)C)C(=O)N[C@@H](Cc1cnc[nH]1)C(=O)N[C@@H](CO)C(=O)N[C@@H](C)C(=O)N[C@@H](CCCCN)C(=O)N[C@@H](CCCCN)C(=O)N[C@@H](Cc1ccccc1)C(N)=O [KWKLFKKIGPGKFLHSAKKF]

MIC [19]: 4.42 µM (≈ 8 µg/mL)
MIC [20]: ≥ 128 µM
MIC [1]: ≥ 100 µM
MIC [4]: 8 µM (≈ 14.5 µg/mL)
MIC [21]: 17.7 µM (≈ 32 µg/mL)
SMILES: CC[C@H](C)[C@H](NC(=O)[C@H](C)NC(=O)[C@H](CO)NC(=O)[C@@H](NC(=O)[C@H](C)NC(=O)[C@H](CC(C)C)NC(=O)[C@@H]1CCCN1C(=O)[C@@H](NC(=O)[C@H](CCSC)NC(=O)CNC(=O)[C@H](CC(C)C)NC(=O)[C@@H](N)CC(C)C)[C@@H](C)CC)[C@@H](C)CC)C(=O)N[C@@H](CO)C(=O)N[C@@H](C)C(=O)N[C@@H](CC(C)C)C(=O)N[C@@H](CO)C(=O)N[C@@H](CCCCN)C(=O)N[C@@H](CC(C)C)C(N)=O [LLGMIPLAISAISALSKL]

MIC [22]: 19.6 µM (≈ 49.9 µg/mL)
SMILES: CC[C@H](C)[C@H](NC(=O)[C@H](CC(C)C)NC(=O)[C@H](CC(=O)O)NC(=O)[C@@H](NC(=O)[C@@H](NC(=O)[C@H](Cc1ccccc1)NC(=O)[C@H](CCC(N)=O)NC(=O)[C@@H](N)CCSC)[C@@H](C)CC)[C@@H](C)O)C(=O)NCC(=O)N[C@@H](CCCCN)C(=O)N[C@@H](C)C(=O)N[C@H](C(=O)N[C@@H](CC(=O)O)C(=O)N[C@@H](Cc1ccccc1)C(=O)N[C@@H](Cc1ccccc1)C(=O)N[C@@H](CCCCN)C(=O)NCC(=O)N[C@@H](CC(C)C)C(=O)N[C@@H](Cc1ccccc1)C(=O)N[C@@H](CC(=O)O)C(=O)N[C@@H](CC(N)=O)C(=O)N[C@@H](CCCCN)C(=O)O)C(C)C [MQFITDLIGKAVDFFKGLFDNK]

SMILES: CC[C@H](C)[C@H](NC(=O)[C@H](C)NC(=O)[C@@H](N)C(C)C)C(=O)N[C@@H](C)C(=O)N[C@@H](CC(C)C)C(=O)N[C@@H](CCCCN)C(=O)N[C@@H](C)C(=O)N[C@@H](C)C(=O)N[C@@H](Cc1cnc[nH]1)C(=O)N[C@@H](Cc1ccc(O)cc1)C(=O)N[C@@H](Cc1cnc[nH]1)C(=O)N[C@H](C(=O)N[C@@H](Cc1cnc[nH]1)C(=O)N[C@@H](CCCCN)C(=O)N[C@@H](CCC(=O)O)C(=O)O)[C@@H](C)O [VAIALKAAHYHTHKE]
MIC [23]: 0.592 µM (≈ 1 µg/mL)
MIC [24]: ≥ 50 µM
MIC [25]: ≥ 75.8 µM
MIC [26]: ≥ 100 µM
MIC [27]: ≥ 100 µM
MIC [28]: 75.8 µM (≈ 128 µg/mL)
